Assay results from ChEMBL document CHEMBL3046732, “Synthesis and biological evaluation of new [1,3,4]thiadiazepino[7,6-b]quinolin-2-amines as potent anti-microbial agents” (2013).

Columns and labels:
Klebsiella aerogenes = assay: Antimicrobial activity against Enterobacter aerogenes assessed as growth inhibition by microdilution method
Aspergillus flavus = assay: Antimicrobial activity against Aspergillus flavus assessed as growth inhibition by microdilution method; format: functional
Trichoderma reesei = assay: Antimicrobial activity against Trichoderma reesei assessed as growth inhibition by microdilution method; format: functional
Aspergillus niger = assay: Antimicrobial activity against Aspergillus niger assessed as growth inhibition by microdilution method; format: functional
Curvularia australiensis = assay: Antimicrobial activity against Curvularia australiensis assessed as growth inhibition by microdilution method; format: functional
Escherichia coli = assay: Antimicrobial activity against Escherichia coli assessed as growth inhibition by microdilution method
Bacillus subtilis = assay: Antimicrobial activity against Bacillus subtilis assessed as growth inhibition by microdilution method
Alternaria alternata = assay: Antimicrobial activity against Alternaria alternata assessed as growth inhibition by microdilution method; format: functional
Streptococcus pyogenes = assay: Antimicrobial activity against Streptococcus pyogenes assessed as growth inhibition by microdilution method
Staphylococcus aureus = assay: Antimicrobial activity against Staphylococcus aureus assessed as growth inhibition by microdilution method
Salmonella typhimurium = assay: Antimicrobial activity against Salmonella enterica subsp. enterica serovar Typhimurium assessed as growth inhibition by microdilution method

Row | SMILES | MIC (Klebsiella aerogenes) [µg/mL] | MIC (Aspergillus flavus) [µg/mL] | MIC (Trichoderma reesei) [µg/mL] | MIC (Aspergillus niger) [µg/mL] | MIC (Curvularia australiensis) [µg/mL] | MIC (Escherichia coli) [µg/mL] | MIC (Bacillus subtilis) [µg/mL] | MIC (Alternaria alternata) [µg/mL] | MIC (Streptococcus pyogenes) [µg/mL] | MIC (Staphylococcus aureus) [µg/mL] | MIC (Salmonella typhimurium) [µg/mL]
1 | Cc1c(Cl)ccc2cc3c(nc12)SC(NCc1ccccc1)=NN=C3 | 500 | 500 | 500 | 500 | 500 | 1000 | 60 | 500 | 1000 | 1000 | 60
2 | Cc1c(Cl)ccc2cc3c(nc12)SC(NCCN1CCOCC1)=NN=C3 | 250 | 1000 | 1000 | 1000 | 1000 | 500 | 250 | 1000 | 250 | 250 | 125
3 | Cc1c(Cl)ccc2cc3c(nc12)SC(Nc1ccc(F)cc1)=NN=C3 | 1000 | 500 | 250 | 500 | 500 | 500 | 125 | 250 | 60 | 1000 | 1000
4 | Cc1c(Cl)ccc2cc3c(nc12)SC(Nc1ccccc1Cl)=NN=C3 | 500 | 500 | 60 | 500 | 250 | 500 | 500 | 60 | 500 | 500 | 500
5 | Cc1c(Cl)ccc2cc3c(nc12)SC(Nc1cccc(Cl)c1)=NN=C3 | 1000 | 500 | 250 | 500 | 1000 | 60 | 125 | 500 | 125 | 500 | 1000
6 | Cc1c(Cl)ccc2cc3c(nc12)SC(Nc1ccc(Cl)cc1)=NN=C3 | 500 | 1000 | 125 | 500 | 500 | 500 | 60 | 250 | 500 | 1000 | 1000
7 | Cc1ccccc1NC1=NN=Cc2cc3ccc(Cl)c(C)c3nc2S1 | 250 | 1000 | 60 | 500 | 500 | 250 | 60 | 250 | 250 | 500 | 500
8 | Cc1ccc(NC2=NN=Cc3cc4ccc(Cl)c(C)c4nc3S2)cc1 | 500 | 1000 | 250 | 1000 | 1000 | 250 | 125 | 500 | 250 | 500 | 500
9 | Cc1cccc(C)c1NC1=NN=Cc2cc3ccc(Cl)c(C)c3nc2S1 | 500 | 500 | 250 | 500 | 500 | 125 | 60 | 125 | 60 | 500 | 1000
10 | Cc1ccc(NC2=NN=Cc3cc4ccc(Cl)c(C)c4nc3S2)c(C)c1 | 500 | 500 | 250 | 500 | 500 | 60 | 30 | 250 | 60 | 500 | 500
11 | CCc1ccc(NC2=NN=Cc3cc4ccc(Cl)c(C)c4nc3S2)cc1 | 1000 | > 1000 | 1000 | 1000 | > 1000 | 1000 | 125 | 1000 | 500 | 1000 | 1000
12 | O=C(N[C@H](CO)[C@H](O)c1ccc([N+](=O)[O-])cc1)C(Cl)Cl [CHLORAMPHENICOL] | 1000 |  |  |  |  | 1000 | 1000 |  | 1000 | 1000 | 1000
